Tests used:
[1] = molecular target: dephosphorylated FGFR2 (Homo sapiens (Human), UniProt P21802); experiment: FGFR enzyme binding assay (HTRF tracer displacement), FGFR2; settings: 5 nM dephosphorylated FGFR2, average of multiple determinations if made
Protocol: The potency of compounds inhibiting human isoforms of FGFR kinase was determined using Life Technologies' Homogeneous Time Resolved Fluorescence (HTRF)-based binding assay technology. […] After a 60 minute incubation at 22° C., the extent of tracer displacement was determined using a PerkinElmer EnVision multimode plate reader via HTRF dual wavelength detection, and the percent of control (POC) was calculated using a ratiometric emission factor. One hundred POC was determined using no test compound, and 0 POC was determined in the presence of 1 μM of an appropriate control inhibitor.

[2] = molecular target: HEK-293 cells transfected with dox-inducible human wild type FGFR1 (Homo sapiens (Human), UniProt P11362); experiment: FGFR1 pERK cell assay; format: cell-based; settings: HEK-293 dox-inducible FGFR1, 1 hour compound, 100 ng/ml FGF-acidic; maximum concentration 5 μM
Summary of the method: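 In HEK-293 cells with dox-induced human wild-type FGFR1, compounds (1:3 dilutions, top 5 μM final) were applied 1 h at 37°C before 5 min stimulation with 100 ng/ml FGF-acidic. Phospho-ERK1/2 measured by MSD sandwich immunoassay; IC50 from 4-parameter fit of POC versus vehicle and control compound.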

[3] = molecular target: recombinant human FGFR3 (amino acids R397-T806) (Homo sapiens (Human), UniProt P22607); experiment: FGFR3 enzyme activity assay (LanthaScreen TR-FRET); format: biochemical; settings: 25 μM ATP, 10 min incubation at 22° C., average of multiple determinations if made, read-out: FGFR3 Enz FRET IC50
Summary of the method: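 GST-HIS6-tagged human FGFR3 (R397-T806) was reacted with 100 nM Alexa Fluor 647-Poly-GT substrate and 25 μM ATP plus compound in HEPES/MgCl2/Triton buffer, pH 7.5, 2% DMSO, for 10 min at 22 °C.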

[4] = molecular target: HEK-293 cells transfected with dox-inducible human wild type FGFR3 (Homo sapiens (Human), UniProt P22607); experiment: FGFR3 pERK cell assay; format: cell-based; settings: HEK-293 dox-inducible FGFR3, 1 hour compound, 100 ng/ml FGF-acidic; maximum concentration 5 μM
Summary of the method: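 Doxycycline-induced cells preincubated 1 h at 37 °C with compound (1:3 dilutions, top 5 μM final), then stimulated 5 min with 100 ng/ml FGF-acidic. Lysate phospho-ERK1/2 measured by MSD sandwich assay; IC50 at 50 POC from 4-parameter fit, normalised to no-compound and control-compound wells.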

Chain of dephosphorylated FGFR2 (P21802 22-821): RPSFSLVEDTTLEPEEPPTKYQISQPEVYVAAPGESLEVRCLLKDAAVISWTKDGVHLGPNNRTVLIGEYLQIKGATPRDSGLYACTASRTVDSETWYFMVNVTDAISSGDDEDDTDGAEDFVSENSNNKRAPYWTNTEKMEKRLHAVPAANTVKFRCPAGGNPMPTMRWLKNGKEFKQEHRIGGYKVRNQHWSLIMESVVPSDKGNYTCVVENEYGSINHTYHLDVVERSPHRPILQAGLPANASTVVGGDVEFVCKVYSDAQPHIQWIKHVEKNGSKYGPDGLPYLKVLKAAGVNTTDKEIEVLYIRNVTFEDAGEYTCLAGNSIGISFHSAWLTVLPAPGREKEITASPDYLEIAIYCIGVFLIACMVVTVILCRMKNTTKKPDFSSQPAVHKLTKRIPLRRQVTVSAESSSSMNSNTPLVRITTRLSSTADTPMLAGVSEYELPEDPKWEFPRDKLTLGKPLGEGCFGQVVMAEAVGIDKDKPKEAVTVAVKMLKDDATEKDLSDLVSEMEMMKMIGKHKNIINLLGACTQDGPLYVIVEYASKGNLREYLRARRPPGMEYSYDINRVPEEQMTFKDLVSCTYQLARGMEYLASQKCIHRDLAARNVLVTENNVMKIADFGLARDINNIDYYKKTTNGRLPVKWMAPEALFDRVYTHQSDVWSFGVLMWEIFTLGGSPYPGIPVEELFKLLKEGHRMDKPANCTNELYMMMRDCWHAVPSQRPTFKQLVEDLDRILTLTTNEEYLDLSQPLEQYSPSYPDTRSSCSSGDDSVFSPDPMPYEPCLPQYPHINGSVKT
Chain of HEK-293 cells transfected with dox-inducible human wild type FGFR1 (P11362 22-822): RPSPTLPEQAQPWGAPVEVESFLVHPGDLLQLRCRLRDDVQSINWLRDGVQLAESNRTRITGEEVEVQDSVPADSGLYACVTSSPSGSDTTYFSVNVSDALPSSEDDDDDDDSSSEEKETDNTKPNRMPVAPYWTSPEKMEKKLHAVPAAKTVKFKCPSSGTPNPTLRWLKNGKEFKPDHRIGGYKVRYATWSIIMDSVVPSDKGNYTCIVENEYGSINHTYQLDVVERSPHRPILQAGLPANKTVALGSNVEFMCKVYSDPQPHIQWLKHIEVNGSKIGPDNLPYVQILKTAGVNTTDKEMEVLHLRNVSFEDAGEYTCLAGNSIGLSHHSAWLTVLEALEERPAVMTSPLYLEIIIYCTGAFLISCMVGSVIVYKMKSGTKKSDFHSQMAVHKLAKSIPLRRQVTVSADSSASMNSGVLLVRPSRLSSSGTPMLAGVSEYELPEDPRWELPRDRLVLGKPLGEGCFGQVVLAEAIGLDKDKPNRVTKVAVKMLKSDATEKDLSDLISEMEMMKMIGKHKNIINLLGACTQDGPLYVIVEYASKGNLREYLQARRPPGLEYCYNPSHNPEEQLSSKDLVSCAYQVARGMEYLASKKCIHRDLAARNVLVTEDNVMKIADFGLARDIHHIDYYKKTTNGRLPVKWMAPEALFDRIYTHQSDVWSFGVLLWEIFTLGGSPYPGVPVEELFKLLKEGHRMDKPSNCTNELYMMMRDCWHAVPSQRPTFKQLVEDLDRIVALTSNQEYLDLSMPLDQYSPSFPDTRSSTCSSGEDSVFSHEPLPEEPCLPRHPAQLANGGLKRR
Chain of recombinant human FGFR3 (amino acids R397-T806) (P22607 397-806): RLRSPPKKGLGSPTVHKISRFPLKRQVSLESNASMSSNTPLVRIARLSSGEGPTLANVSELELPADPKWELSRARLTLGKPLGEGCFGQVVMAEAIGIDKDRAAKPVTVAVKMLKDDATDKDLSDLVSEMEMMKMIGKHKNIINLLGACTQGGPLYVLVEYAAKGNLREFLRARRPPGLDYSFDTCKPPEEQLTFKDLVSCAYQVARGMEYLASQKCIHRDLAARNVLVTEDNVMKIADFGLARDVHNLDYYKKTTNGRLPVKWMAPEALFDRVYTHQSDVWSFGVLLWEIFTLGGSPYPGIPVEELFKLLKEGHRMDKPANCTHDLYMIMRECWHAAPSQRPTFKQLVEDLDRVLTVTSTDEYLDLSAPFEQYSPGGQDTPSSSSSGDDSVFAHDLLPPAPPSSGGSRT
Chain of HEK-293 cells transfected with dox-inducible human wild type FGFR3 (P22607 23-806): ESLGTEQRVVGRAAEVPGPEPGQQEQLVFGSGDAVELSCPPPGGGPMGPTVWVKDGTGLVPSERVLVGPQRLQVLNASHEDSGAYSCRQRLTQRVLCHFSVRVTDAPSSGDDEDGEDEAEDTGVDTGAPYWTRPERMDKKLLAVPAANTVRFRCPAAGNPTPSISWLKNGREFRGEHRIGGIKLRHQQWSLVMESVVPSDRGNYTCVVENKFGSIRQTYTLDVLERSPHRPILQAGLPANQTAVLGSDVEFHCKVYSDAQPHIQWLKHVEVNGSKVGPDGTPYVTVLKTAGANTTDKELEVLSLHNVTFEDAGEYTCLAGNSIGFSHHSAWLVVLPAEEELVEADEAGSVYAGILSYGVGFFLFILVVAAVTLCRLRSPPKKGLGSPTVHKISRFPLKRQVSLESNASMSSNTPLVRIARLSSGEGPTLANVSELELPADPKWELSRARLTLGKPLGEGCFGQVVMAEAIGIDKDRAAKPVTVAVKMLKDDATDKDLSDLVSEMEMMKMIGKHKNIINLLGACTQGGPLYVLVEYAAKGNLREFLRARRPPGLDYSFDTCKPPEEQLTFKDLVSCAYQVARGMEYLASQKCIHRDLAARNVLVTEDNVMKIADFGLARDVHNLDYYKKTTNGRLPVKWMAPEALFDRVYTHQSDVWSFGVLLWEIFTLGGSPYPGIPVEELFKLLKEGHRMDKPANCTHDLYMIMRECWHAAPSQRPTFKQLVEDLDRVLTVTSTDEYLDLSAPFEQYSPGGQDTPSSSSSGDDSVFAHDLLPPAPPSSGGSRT

| SMILES | IC50 [1] | IC50 [2] | IC50 [3] | IC50 [4] |
| --- | --- | --- | --- | --- |
| C=CC(=O)N1CC(OC)(C(=O)N2CCC(n3ncc(-c4cc(OC)c5c(Cl)cnn5c4)c3C)CC2)C1 [Example 117, 1-(3-(4-(4-(3-chloro-4-methoxypyrazolo[1,5-a]pyridin-6-yl)-5-methyl-1H-pyrazol-1-yl)piperidine-1-carbonyl)-3-methoxyazetidin-1-yl)prop-2-en-1-one] | 103 nM | 1200 nM | 43 nM | 36 nM |
| C=CC(=O)N1CC(CN2CCC(n3ncc(-c4cc(OC)c5c(Cl)cnn5c4)c3C)CC2)C1 [Example 118, 1-(3-((4-(4-(3-chloro-4-methoxypyrazolo[1,5-a]pyridin-6-yl)-5-methyl-1H-pyrazol-1-yl)piperidin-1-yl)methyl)azetidin-1-yl)prop-2-en-1-one] | 56 nM | 674 nM | 41 nM | 62 nM |
| C=CC(=O)N1CC(CN2CCC(n3ncc(-c4cc(OC)c5c(Cl)cnn5c4)c3C)CC2)(OC)C1 [Example 119, 1-(3-((4-(4-(3-chloro-4-methoxypyrazolo[1,5-a]pyridin-6-yl)-5-methyl-1H-pyrazol-1-yl)piperidin-1-yl)methyl)-3-methoxyazetidin-1-yl)prop-2-en-1-one] | 60 nM | 591 nM | 39 nM | 50 nM |
| C=CC(=O)N1CC(CN2CCC(n3ncc(-c4cc(OC)c5c(Cl)cnn5c4)c3C)CC2)C1(C)C (stereo not drawn) [Example 120, 1-(3-((4-(4-(3-chloro-4-methoxypyrazolo[1,5-a]pyridin-6-yl)-5-methyl-1H-pyrazol-1-yl)piperidin-1-yl)methyl)-2,2-dimethylazetidin-1-yl)prop-2-en-1-one] | 84 nM | 523 nM | 72 nM | 142 nM |
| C=CC(=O)N1CCN(C(=O)N2CCC(n3cc(-c4cc(OC)c5c(C#N)cnn5c4)cn3)CC2)C[C@@H]1CC#N [Example 135, (S)-6-(1-(1-(4-acryloyl-3-(cyanomethyl)piperazine-1-carbonyl)piperidin-4-yl)-1H-pyrazol-4-yl)-4-methoxypyrazolo[1,5-a]pyridine-3-carbonitrile] | 13 nM | 342 nM | 6 nM | 40 nM |
| COc1cc(-c2cnn(C3CCN(C(=O)C4CN(C(=O)C5=CCC5)C4)CC3)c2)cn2ncc(C#N)c12 [Example 137, 6-(1-(1-(1-(cyclobut-1-ene-1-carbonyl)azetidine-3-carbonyl)piperidin-4-yl)-1H-pyrazol-4-yl)-4-methoxypyrazolo[1,5-a]pyridine-3-carbonitrile] | 15 nM | 989 nM | 5 nM | 318 nM |
| COc1cc(-c2cnn(C3CCN(C(=O)C4CN(C(=O)/C=C/CO)C4)CC3)c2)cn2ncc(C#N)c12 [Example 141, (E)-6-(1-(1-(1-(4-hydroxybut-2-enoyl)azetidine-3-carbonyl)piperidin-4-yl)-1H-pyrazol-4-yl)-4-methoxypyrazolo [1,5-a]pyridine-3-carbonitrile] | 18 nM | ≥ 5000 nM | 6 nM | 3910 nM |
| C=CC(=O)N1CC(CN2CCC(n3ncc(-c4cc(OC)c5c(C#N)cnn5c4)c3C)CC2)C1(C)C (stereo not drawn) [Example 151, 6-(1-(1-((1-acryloyl-2,2-dimethylazetidin-3-yl)methyl)piperidin-4-yl)-5-methyl-1H-pyrazol-4-yl)-4-methoxypyrazolo [1,5-a]pyridine-3-carbonitrile] | 38 nM | 1960 nM | 17 nM | 592 nM |
| COc1cc(-c2cnn(C3CCN(C(=O)C4CN(C(=O)/C=C/CN(C)C)C4)CC3)c2C)cn2ncc(C#N)c12 [Example 152, (E)-6-(1-(1-(1-(4-(dimethylamino)but-2-enoyl)azetidine-3-carbonyl)piperidin-4-yl)-5-methyl-1H-pyrazol-4-yl)-4-methoxypyrazolo [1,5-a]pyridine-3-carbonitrile] | 49 nM | ≥ 5000 nM | 16 nM | 849 nM |
| COc1cc(-c2cnn(C3CCN(C(=O)C4(F)CN(C(=O)/C=C/CN(C)C)C4)CC3)c2C)cn2ncc(C#N)c12 [Example 153, (E)-6-(1-(1-(1-(4-(dimethylamino)but-2-enoyl)-3-fluoroazetidine-3-carbonyl)piperidin-4-yl)-5-methyl-1H-pyrazol-4-yl)-4-methoxypyrazolo [1,5-a]pyridine-3-carbonitrile] | 11 nM | 2 nM | 5 nM | 25 nM |
| COC/C=C/C(=O)N1CC(F)(C(=O)N2CCC(n3ncc(-c4cc(OC)c5c(C#N)cnn5c4)c3C)CC2)C1 [Example 154, (E)-6-(1-(1-(3-fluoro-1-(4-methoxybut-2-enoyl)azetidine-3-carbonyl)piperidin-4-yl)-5-methyl-1H-pyrazol-4-yl)-4-methoxypyrazolo [1,5-a]pyridine-3-carbonitrile] | 69 nM | 2630 nM | 19 nM | 122 nM |
| COc1cc(-c2cnn(C3CCN(C(=O)C4(F)CN(C(=O)/C=C/C(F)(F)F)C4)CC3)c2C)cn2ncc(C#N)c12 [Example 155, (E)-6-(1-(1-(3-fluoro-1-(4,4,4-trifluorobut-2-enoyl)azetidine-3-carbonyl)piperidin-4-yl)-5-methyl-1H-pyrazol-4-yl)-4-methoxypyrazolo [1,5-a]pyridine-3-carbonitrile] | 51 nM | 157 nM | 11 nM | 31 nM |
| CC#CC(=O)N1CC(F)(C(=O)N2CCC(n3ncc(-c4cc(OC)c5c(C#N)cnn5c4)c3C)CC2)C1 [Example 156, 6-(1-(1-(1-(but-2-ynoyl)-3-fluoroazetidine-3-carbonyl)piperidin-4-yl)-5-methyl-1H-pyrazol-4-yl)-4-methoxypyrazolo [1,5-a]pyridine-3-carbonitrile] | 26 nM | 3110 nM | 24 nM | 91 nM |
| COc1cc(-c2cnn(C3CCN(C(=O)C4(C)CN(C(=O)/C=C/CN(C)C)C4)CC3)c2C)cn2ncc(C#N)c12 [Example 157, (E)-6-(1-(1-(1-(4-(dimethylamino)but-2-enoyl)-3-methylazetidine-3-carbonyl)piperidin-4-yl)-5-methyl-1H-pyrazol-4-yl)-4-methoxypyrazolo [1,5-a]pyridine-3-carbonitrile] | 6 nM | ≥ 5000 nM | 18 nM | 1150 nM |
| COc1cc(-c2cnn(C3CCN(C(=O)C4(OC)CN(C(=O)/C=C/CN(C)C)C4)CC3)c2C)cn2ncc(C#N)c12 [Example 158, (E)-6-(1-(1-(1-(4-(dimethylamino)but-2-enoyl)-3-methoxyazetidine-3-carbonyl)piperidin-4-yl)-5-methyl-1H-pyrazol-4-yl)-4-methoxypyrazolo [1,5-a]pyridine-3-carbonitrile] | 8 nM | 1830 nM | 8 nM | 108 nM |
| COc1cc(-c2cnn(C3CCN(CC4(OC)CN(C(=O)/C=C/CN(C)C)C4)CC3)c2C)cn2ncc(C#N)c12 [Example 159, (E)-6-(1-(1-((1-(4-(dimethylamino)but-2-enoyl)-3-methoxyazetidin-3-yl)methyl)piperidin-4-yl)-5-methyl-1H-pyrazol-4-yl)-4-methoxypyrazolo [1,5-a]pyridine-3-carbonitrile] | 24 nM | 737 nM | 10 nM | 30 nM |
| COc1cc(-c2cnn(C3CN(C(=O)C4(F)CN(C(=O)/C=C/CN(C)C)C4)C3)c2C)cn2ncc(C#N)c12 [Example 160, (E)-6-(1-(1-(1-(4-(dimethylamino)but-2-enoyl)-3-fluoroazetidine-3-carbonyl)azetidin-3-yl)-5-methyl-1H-pyrazol-4-yl)-4-methoxypyrazolo [1,5-a]pyridine-3-carbonitrile] | 33 nM | 3280 nM | 34 nM | 481 nM |
| COc1cc(-c2c(C)nn(C3CCN(C(=O)C4(F)CN(C(=O)/C=C/CN(C)C)C4)CC3)c2C)cn2ncc(C#N)c12 [Example 161, (E)-6-(1-(1-(1-(4-(dimethylamino)but-2-enoyl)-3-fluoroazetidine-3-carbonyl)piperidin-4-yl)-3,5-dimethyl-1H-pyrazol-4-yl)-4-methoxypyrazolo [1,5-a]pyridine-3-carbonitrile] | 44 nM | 1620 nM | 20 nM | 133 nM |
